Drawing on US11684676B2, “Site-specific antibody-drug conjugates by ADP-ribosyl cyclases” (University of Southern California, priority 2020, dated 2023), this text covers kinact for one compound.

This experiment deals with CD38 C-fusion IgG. The experiment in a line: Inactivation of CD38 C-fusion IgG by 2′-Cl-araNAD+-N3. The experiment is classed as biochemical, human. The following applies: CD38 C-fusion IgG 2 nM, NGD+ 100 μM. The source says: The formation of cyclic GDP-ribose was monitored by a Synergy H1 plate reader (Biotek, VT) under the kinetic mode with excitation wavelength set at 300 nm and emission wavelength at 410 nm.

On to `[N-]=[N+]=NCCCNc1ncnc2c1ncn2[C@@H]1O[C@H](COP(=O)(O)OP(=O)([O-])OC[C@H]2O[C@@H]([n+]3cccc(C(N)=O)c3)[C@@H](Cl)[C@@H]2O)[C@@H](O)[C@H]1O` [2′-Cl-araNAD^+-N3, 1-((2R,3S,4R,5R)-5-((((((((2R,3S,4R,5R)-5-(6-((3-azidopropyl)amino)-9H-purin-9-yl)-3,4-dihydroxytetrahydrofuran-2-yl)methoxy)(hydroxy)phosphoryl)oxy)oxidophosphoryl)oxy)methyl)-3-chloro-4-hydroxytetrahydrofuran-2-yl)-3-carbamoylpyridin-1-ium], for which the kinact (commonly the rate constant of inactivation at saturating inhibitor) amounted to 0.0039 ± 0.0007 s⁻¹.
